Assay: Hygroscopicity study in automated water sorption analyzer (sorption/desorption isotherm)
Assay type: physicochemical
Method: Polymorph I of the free acid is transformed above 60% relative humidity into the hydrate. It is hygroscopic and adsorbs at 80% relative humidity approx. 8% moisture, which corresponds to a dihydrate of the substance. The hydration is reversible. Below 40% relative humidity a transformation into polymorph I is observed.
Data collection for the hygroscopicity studies was carried out in an automated water sorption analyzer. Approximately 10 mg of the investigated solid state form of the crystalline acid was exposed to a continuous flow of nitrogen with predetermined and constant relative humidity. The rate of sweep gas was set at 200 cm^3/min. For a basic assay, two full cycles (sorption/desorption) were measured at 25° C. The measurement was started at 0% relative humidity in order to remove surface water. Once the constant mass was achieved, the next humidity was automatically set. The water sorption/desorption was investigated in steps of 10% between 0% and 90% relative humidity under the criteria for initiation of the first step as set forth herein. Additionally, the sorption at about 98% relative humidity was investigated. Data was acquired using the DVSWin software.

O=C(O)COC[C@H](O)[C@H](O)/C=C/C=C/C#C/C=C/[C@H](O)COc1ccc(F)cc1 [hydrate, 2-((2S,3R,4E,6E,10E,12S)-13-(4-fluorophenoxy)-2,3,12-trihydroxytrideca-4,6,10-trien-8-ynyloxy)acetic acid]
relative humidity below which transformation into polymorph I is observed (desorption): Below 40 % relative humidity

O=C(O)COC[C@H](O)[C@H](O)/C=C/C=C/C#C/C=C/[C@H](O)COc1ccc(F)cc1 [polymorph I, 2-((2S,3R,4E,6E,10E,12S)-13-(4-fluorophenoxy)-2,3,12-trihydroxytrideca-4,6,10-trien-8-ynyloxy)acetic acid]
relative humidity above which polymorph I is transformed into the hydrate (25° C., water sorption): above 60 % relative humidity | moisture adsorbed (at 80% relative humidity, corresponds to a dihydrate): approx. 8% | hygroscopicity (in words) (sorption isotherm, FIG. 1): hygroscopic | reversibility of the hydration (sorption/desorption cycles): reversible
